Experimental data from patent EP1066315B1 (University of Dundee, priority 1998, dated 2008).
Residues, ends and D or L forms follow the SMILES beside them. *: point of attachment. Fmoc = O=C(OCC1c2ccccc2-c2ccccc21)*

Legend:
[1] = test system: purified AEP (legumain from pig kidney); assay: Digestion of TTCF with purified AEP in the presence of tetrapeptides; format: biochemical; conditions: 0.2 mg/ml peptide; Fig 3a
Method: The invention will now be described by reference to the following Examples and Figures wherein • Figure 1: Processing of TTCF by a leupeptin-insensitive cysteine endopeptidase activity. (a) TTCF was digested in vitro in the presence of disrupted lysosomes (1-2 µg) in the presence or absence of iodoacetamide (1 mM), leupeptin, E64 or pepstatin (each at 0.1 mg/ml). Digestions were in 0.1 M NH4 acetate at pH 4.5 or Na2HPO4, pH 6.0 or 7.0. After 4 hours at 37°C, the reactions were separated by Tris-tricine SDS-PAGE and stained with Coomassie Blue. (b) Cleavage sites: TTCF digestion products were separated by SDS PAGE and electrophoretically transferred to nitrocellulose membrane. Individual fragments numbered 1-6 were subjected to 5 cycles of Edman degradation. N-terminal sequence obtained is shown in bold following upstream residues from TTCF (tetanus toxin numbering). The N-terminal sequence of His-tagged TTCF was obtained for fragments 1 and 3. (c) Residues Asn 1184 and Glu 1184 in TTCF were mutated to alanine (see Methods) and digestions performed as before. The mutation abolishes cleavage at the mutated site but not at the first site (doublet at 47 kD). In this experiment cleavage of the third site was minimal. • Figure 2: TTCF is processed by an asparaginyl endopeptidase. (a) Chromatography of the TTCF processing activity on Mono-S resin. Fractions eluted by NaCl gradient were incubated with the substrates Z-Ala-Ala-Asn-NHMec or Z-Phe-Arg-NHMec in the presence or absence of E64 (trans-epoxysuccinyl-L-leucylamido-(4-guanidino)butane). […] (b) Fractions as above were incubated with 10 µg TTCF in the presence or absence of E64 for 4 hours at 37°C prior to SDS-PAGE analysis. (c) Each fraction was analysed by SDS-PAGE and Western blotting. Electrophoretically transferred material was probed with an affinity purified antiserum raised against the peptide KGIGSGKVLKSGPQC from human legumain^1. • Figure 3: Peptide inhibitors of AEP block asparaginyl endopeptidase activity and TTCF processing in vitro and in vivo. […] Release of 7-amino-4-methyl coumarin was measured after 10, 20 or 30 minutes. […] At different times the cells were washed, fixed in 0.05 % glutaraldehyde and antigen presentation measured using proliferation of different autologous TTCF-specific T cell clones. c, AEP pre-processing of TTCF speeds antigen presentation. […] Presentation was measured after 60 minutes of antigen pulsing using EBV B cells.
We decided to test the possibility that high concentrations of asparagine containing peptides might act as competitive inhibitors. […] To establish that inhibition of AEP was specific, we measured the hydrolysis of different synthetic peptide substrates in the presence and absence of these tetrapeptides.

[2] = test system: Cathepsin S; assay: Hydrolysis of cathepsin S substrate by B cell lysosomal fractions; format: biochemical, human; conditions: Fig 3b
Method: The invention will now be described by reference to the following Examples and Figures wherein • Figure 1: Processing of TTCF by a leupeptin-insensitive cysteine endopeptidase activity. (a) TTCF was digested in vitro in the presence of disrupted lysosomes (1-2 µg) in the presence or absence of iodoacetamide (1 mM), leupeptin, E64 or pepstatin (each at 0.1 mg/ml). Digestions were in 0.1 M NH4 acetate at pH 4.5 or Na2HPO4, pH 6.0 or 7.0. After 4 hours at 37°C, the reactions were separated by Tris-tricine SDS-PAGE and stained with Coomassie Blue. (b) Cleavage sites: TTCF digestion products were separated by SDS PAGE and electrophoretically transferred to nitrocellulose membrane. Individual fragments numbered 1-6 were subjected to 5 cycles of Edman degradation. N-terminal sequence obtained is shown in bold following upstream residues from TTCF (tetanus toxin numbering). […] (c) Each fraction was analysed by SDS-PAGE and Western blotting. […] Release of 7-amino-4-methyl coumarin was measured after 10, 20 or 30 minutes. […] At different times the cells were washed, fixed in 0.05 % glutaraldehyde and antigen presentation measured using proliferation of different autologous TTCF-specific T cell clones. c, AEP pre-processing of TTCF speeds antigen presentation. […] Presentation was measured after 60 minutes of antigen pulsing using EBV B cells. […]

C[C@H](NC(=O)OCC1c2ccccc2-c2ccccc21)C(=O)N[C@@H](CCC(=O)O)C(=O)N[C@@H](CC(N)=O)C(=O)N[C@@H](CCCCN)C(N)=O [AENK, Ala-Glu-Asn-Lys-NH] (Fmoc-AENK-NH2)
inhibition of processing of TTCF by AEP [1]: substantially inhibited | hydrolysis of the Cathepsin S substrate Z-Val-Val-Arg-HNMec [2]: had no effect
